Consider 15 compounds from ChEMBL document CHEMBL1201862, “PubChem BioAssay data set” (2004).

The source made the active and inactive calls.

For orientation: AC50 means the concentration giving half of the maximal activity seen. What is called EC50 is the concentration giving half of the maximal effect.

The target in one experiment is Cytochrome P450 3A4 (Homo sapiens, UniProt P08684). Particulars: Potency.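 Also: confirmatory qHTS run detecting inhibitors and substrates of CYP3A4.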
The nature of experiment [1]: Luminescence Cell-Based Dose Retest to Confirm Inhibitors of Cancer Stem Cells. [Related pubchem assays (depositor defined):AID2717, AID2721]. Type of experiment: functional. The following applies: Homo sapiens.
The target in experiment [2] is T1, Ubiquitin-conjugating enzyme E2 N (Homo sapiens, UniProt P61088).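 Also: Dose-response confirmation in a TR-FRET assay detecting UBC13-driven polyubiquitin chain formation, inhibition measured.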
T1 sequence (P61088 whole entry): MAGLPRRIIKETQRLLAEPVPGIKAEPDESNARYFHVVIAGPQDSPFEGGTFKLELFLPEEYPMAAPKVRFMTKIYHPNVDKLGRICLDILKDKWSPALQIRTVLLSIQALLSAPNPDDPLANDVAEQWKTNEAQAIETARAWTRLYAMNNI
Type of experiment: functional.

The target in experiment [3] is Neurotensin receptor type 1 (Homo sapiens, UniProt P30989). Type of experiment: functional.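 Also: Image-based confirmatory dose-response assay measuring agonist activity at NTR1; NTR1-expressing U2OS osteosarcoma cells imaged for beta-arrestin GFP spot formation; agonist potency where compounds increase beta-arrestin recruitment.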
Experiment [4] can be described thus: A Cell Based Secondary Assay To Explore Cytotoxicity of Compounds that Sensitize Mycobacterium Tuberculosis to Beta-Lactam Antibiotics. Type of experiment: functional.
Experiment [5] can be described thus: THP-1 cell cytotoxicity, dose response, cytotoxicity control for non-replicating M. tuberculosis project (AID 489025). Type of experiment: functional.
Experiment [6] can be described thus: Vero E6 cell cytotoxicity, dose response, cytotoxicity control for non-replicating M. tuberculosis project, secondary assay (AID 492998). Type of experiment: functional, VeroE6. Particulars: Vero C1008.
For a further experiment, the system named is INS1. Briefly: beta cell apoptosis inhibitors, cytokine rescue, dose response, luminescence, retest (AID 449756).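 Also: cell death triggered by IL-1 beta plus TNF-alpha plus IFN-gamma mixture; protective hits raise ATP signal compared with cytokine alone wells.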 Type of experiment: functional, cell-based. The following applies: Rattus norvegicus.
A further experiment can be described thus: cells. Type of experiment: functional.
Experiment [7] is described as follows: microbe, parasite or virus in culture. Type of experiment: functional. The following applies: Mycobacterium tuberculosis.
Experiment [8] concerns the target Heat shock protein HSP 90-alpha (Homo sapiens, UniProt P07900). Type of experiment: functional, organism-based.
The target in a further experiment is T2, Bcl-2-like protein 10 (Homo sapiens, UniProt Q9HD36).
T2 sequence (Q9HD36 whole entry): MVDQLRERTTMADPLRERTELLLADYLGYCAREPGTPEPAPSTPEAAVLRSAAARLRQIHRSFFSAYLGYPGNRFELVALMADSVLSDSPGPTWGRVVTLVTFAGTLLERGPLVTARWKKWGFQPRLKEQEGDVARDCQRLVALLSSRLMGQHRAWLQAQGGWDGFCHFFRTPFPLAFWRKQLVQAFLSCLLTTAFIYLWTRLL
The experiment in a line: displacers of TR3 peptide from Bcl-B, primary screen, selectivity assay for Bfl-1 inhibitor project, biochemical, fluorescence polarization, FITC-TR3 peptide (AID 748).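 Also: fluorescence polarization from a fluorescein-labelled TR3 peptide binding purified Bcl-B.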 For orientation: Polarisation of emitted light reports the rotation of a fluorescent probe.

Experiment [9] concerns the target T3, Replicative DNA helicase DnaB (Mycobacterium tuberculosis, UniProt P9WMR3).
T3 sequence (P9WMR3 whole entry): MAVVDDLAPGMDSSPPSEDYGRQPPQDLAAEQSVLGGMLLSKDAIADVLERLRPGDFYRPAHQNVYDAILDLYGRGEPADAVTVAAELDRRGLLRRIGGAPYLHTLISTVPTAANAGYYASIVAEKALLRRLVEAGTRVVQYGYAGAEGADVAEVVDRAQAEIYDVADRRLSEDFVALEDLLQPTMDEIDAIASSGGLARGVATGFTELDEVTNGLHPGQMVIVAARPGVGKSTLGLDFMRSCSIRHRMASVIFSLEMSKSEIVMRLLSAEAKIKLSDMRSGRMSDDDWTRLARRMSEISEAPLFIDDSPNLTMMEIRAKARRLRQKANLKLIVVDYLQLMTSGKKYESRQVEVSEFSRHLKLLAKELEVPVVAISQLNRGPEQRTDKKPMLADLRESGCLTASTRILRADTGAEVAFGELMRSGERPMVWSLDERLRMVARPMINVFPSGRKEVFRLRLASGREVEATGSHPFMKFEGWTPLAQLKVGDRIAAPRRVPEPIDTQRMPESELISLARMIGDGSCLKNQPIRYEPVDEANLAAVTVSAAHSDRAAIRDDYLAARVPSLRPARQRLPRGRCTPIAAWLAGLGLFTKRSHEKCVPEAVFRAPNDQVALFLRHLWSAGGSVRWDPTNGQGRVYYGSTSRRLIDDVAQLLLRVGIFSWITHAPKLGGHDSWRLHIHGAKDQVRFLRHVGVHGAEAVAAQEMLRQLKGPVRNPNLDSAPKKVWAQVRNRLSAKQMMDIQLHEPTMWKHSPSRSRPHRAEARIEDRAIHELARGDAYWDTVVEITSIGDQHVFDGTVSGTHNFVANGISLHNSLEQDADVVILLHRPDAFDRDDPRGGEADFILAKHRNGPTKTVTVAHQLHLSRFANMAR
The experiment in a line: DnaB intein splicing inhibitors, dose response, biochemical, cell-free fluorescence (AID 449749). Type of experiment: functional.

A further experiment concerns the target Genome polyprotein (dengue virus type 2, UniProt P29990). The experiment in a line: Dengue-2 NS5 methyltransferase inhibitors, primary screen, biochemical, confirmation dose response (AID 588689). Type of experiment: functional.
Experiment [10] has as its target T4, Mannose-6-phosphate isomerase (Homo sapiens, UniProt P34949).
T4 sequence (P34949 whole entry): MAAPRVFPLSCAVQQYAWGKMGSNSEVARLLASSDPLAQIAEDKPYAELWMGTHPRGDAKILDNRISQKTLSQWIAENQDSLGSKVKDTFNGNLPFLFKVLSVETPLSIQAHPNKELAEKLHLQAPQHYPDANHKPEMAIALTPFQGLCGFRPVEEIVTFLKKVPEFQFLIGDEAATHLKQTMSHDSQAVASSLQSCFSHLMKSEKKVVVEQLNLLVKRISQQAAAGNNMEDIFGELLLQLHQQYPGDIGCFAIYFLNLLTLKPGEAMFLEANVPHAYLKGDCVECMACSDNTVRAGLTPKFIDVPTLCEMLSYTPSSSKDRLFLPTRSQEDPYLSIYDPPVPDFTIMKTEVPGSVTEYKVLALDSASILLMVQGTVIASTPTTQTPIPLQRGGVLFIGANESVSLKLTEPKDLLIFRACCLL
Briefly: inhibitors of human PMI, primary screen, biochemical, fluorescence intensity, coupled assay (AID 1209).

In a further experiment the target is T5, Protein RecA (Mycobacterium tuberculosis, UniProt P9WHJ3).
T5 sequence (P9WHJ3 whole entry): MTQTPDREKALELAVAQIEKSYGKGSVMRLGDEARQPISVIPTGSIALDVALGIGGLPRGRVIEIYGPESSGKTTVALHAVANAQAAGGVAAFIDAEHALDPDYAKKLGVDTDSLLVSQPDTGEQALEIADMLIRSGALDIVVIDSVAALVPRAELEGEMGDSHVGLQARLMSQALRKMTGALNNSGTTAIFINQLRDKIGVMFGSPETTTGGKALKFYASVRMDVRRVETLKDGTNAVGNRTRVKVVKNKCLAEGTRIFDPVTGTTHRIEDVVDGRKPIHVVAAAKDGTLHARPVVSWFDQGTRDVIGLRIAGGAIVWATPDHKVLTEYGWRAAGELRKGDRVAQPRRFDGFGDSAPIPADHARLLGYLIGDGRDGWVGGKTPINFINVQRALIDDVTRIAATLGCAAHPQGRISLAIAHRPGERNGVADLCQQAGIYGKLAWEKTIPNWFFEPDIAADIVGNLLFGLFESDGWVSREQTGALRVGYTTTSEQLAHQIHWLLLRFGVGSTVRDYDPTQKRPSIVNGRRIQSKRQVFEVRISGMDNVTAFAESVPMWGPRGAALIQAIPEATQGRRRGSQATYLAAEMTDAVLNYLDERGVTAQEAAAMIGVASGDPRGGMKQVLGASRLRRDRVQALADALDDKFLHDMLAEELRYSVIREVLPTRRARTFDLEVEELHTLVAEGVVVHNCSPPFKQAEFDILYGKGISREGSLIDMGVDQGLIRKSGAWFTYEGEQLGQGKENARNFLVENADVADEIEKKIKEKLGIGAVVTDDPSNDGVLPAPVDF
The experiment in a line: Fluorescence Cell-Free Homogeneous Dose Retest to Identify Inhibitors of RecA-Intein Splicing Activity. [Related pubchem assays (depositor defined):AID2097, AID2223, AID489010, AID492950]. Type of experiment: functional.

Experiment [11] has as its target T6, Lysosomal acid glucosylceramidase (Homo sapiens, UniProt P04062).
T6 sequence (P04062 whole entry): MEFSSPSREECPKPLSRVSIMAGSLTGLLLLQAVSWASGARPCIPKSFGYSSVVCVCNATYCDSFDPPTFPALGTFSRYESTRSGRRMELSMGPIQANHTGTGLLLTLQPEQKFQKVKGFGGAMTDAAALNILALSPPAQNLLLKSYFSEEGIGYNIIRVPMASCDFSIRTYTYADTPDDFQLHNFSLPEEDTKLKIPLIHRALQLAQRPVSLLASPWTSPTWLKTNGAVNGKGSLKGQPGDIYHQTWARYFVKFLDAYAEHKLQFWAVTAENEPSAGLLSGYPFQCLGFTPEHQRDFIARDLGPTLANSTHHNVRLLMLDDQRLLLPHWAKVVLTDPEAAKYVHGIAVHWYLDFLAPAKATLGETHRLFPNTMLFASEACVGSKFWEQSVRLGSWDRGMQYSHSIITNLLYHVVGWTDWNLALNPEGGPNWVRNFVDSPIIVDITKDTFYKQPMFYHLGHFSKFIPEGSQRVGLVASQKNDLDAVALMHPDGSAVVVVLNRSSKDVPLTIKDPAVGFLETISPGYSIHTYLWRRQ
Briefly: Dose response cell-based high throughput screening assay to identify enhancers of beta-glucosidase activity. [Related pubchem assays: 784 ]. Type of experiment: functional.

The target in experiment [12] is Peroxisome proliferator-activated receptor gamma/Nuclear receptor coactivator 2 (Homo sapiens, UniProt P37231). Type of experiment: functional.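 Also: agonist potency for raising coactivator recruitment to the receptor.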
Sequence of Peroxisome proliferator-activated receptor gamma/Nuclear receptor coactivator 2 (P37231 whole entry): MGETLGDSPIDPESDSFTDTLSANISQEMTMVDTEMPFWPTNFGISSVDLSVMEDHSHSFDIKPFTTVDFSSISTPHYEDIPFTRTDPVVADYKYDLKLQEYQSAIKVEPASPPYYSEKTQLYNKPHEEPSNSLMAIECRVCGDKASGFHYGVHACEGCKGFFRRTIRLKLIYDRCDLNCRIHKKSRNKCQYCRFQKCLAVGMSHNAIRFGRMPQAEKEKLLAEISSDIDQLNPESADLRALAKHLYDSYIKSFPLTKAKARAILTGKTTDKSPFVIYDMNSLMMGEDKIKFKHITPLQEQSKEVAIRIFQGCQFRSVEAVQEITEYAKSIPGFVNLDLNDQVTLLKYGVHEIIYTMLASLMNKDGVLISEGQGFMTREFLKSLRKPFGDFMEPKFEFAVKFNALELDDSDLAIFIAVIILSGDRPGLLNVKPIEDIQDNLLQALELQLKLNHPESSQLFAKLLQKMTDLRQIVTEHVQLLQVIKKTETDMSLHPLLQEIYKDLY
Sequence of Peroxisome proliferator-activated receptor gamma/Nuclear receptor coactivator 2 (Q15596 whole entry, further chain): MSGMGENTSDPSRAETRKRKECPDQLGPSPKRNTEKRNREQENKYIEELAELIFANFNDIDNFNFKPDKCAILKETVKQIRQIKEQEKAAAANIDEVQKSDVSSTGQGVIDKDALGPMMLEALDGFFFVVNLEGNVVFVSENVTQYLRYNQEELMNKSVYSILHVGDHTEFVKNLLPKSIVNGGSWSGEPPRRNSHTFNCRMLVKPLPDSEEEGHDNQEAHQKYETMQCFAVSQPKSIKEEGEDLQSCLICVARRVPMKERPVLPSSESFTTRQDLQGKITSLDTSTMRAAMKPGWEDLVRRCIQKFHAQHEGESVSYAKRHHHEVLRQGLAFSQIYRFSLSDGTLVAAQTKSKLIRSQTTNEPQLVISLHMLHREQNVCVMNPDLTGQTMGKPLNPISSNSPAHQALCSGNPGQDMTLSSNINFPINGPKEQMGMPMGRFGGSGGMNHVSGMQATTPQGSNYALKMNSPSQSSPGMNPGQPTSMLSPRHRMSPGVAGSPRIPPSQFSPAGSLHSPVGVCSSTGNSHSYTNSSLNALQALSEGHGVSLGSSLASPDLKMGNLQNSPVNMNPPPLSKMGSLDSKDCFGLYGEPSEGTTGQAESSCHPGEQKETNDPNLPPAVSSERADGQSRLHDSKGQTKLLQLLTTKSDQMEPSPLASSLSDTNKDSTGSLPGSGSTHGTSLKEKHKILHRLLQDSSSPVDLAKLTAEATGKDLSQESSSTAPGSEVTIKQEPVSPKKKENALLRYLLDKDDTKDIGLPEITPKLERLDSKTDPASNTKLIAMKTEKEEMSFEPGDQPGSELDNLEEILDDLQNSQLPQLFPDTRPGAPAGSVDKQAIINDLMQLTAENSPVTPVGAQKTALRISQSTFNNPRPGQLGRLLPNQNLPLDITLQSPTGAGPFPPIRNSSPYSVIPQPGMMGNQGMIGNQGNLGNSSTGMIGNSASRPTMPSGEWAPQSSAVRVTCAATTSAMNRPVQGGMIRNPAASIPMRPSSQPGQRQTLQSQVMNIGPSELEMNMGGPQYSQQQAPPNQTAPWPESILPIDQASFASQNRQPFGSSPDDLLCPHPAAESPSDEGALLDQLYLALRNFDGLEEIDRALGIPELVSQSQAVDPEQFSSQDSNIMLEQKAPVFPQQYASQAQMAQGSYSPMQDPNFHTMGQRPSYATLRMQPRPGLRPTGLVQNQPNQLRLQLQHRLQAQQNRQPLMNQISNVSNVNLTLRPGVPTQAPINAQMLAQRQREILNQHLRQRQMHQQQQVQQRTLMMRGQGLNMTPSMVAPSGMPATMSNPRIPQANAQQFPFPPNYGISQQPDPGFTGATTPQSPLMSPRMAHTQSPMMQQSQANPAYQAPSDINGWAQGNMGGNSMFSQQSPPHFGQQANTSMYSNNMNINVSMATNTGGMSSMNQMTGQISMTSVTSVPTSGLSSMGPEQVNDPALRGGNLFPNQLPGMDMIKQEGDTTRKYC
The target of experiment [13] is Peroxisome proliferator-activated receptor gamma/Nuclear receptor coactivator 3 (Homo sapiens, UniProt P37231). Type of experiment: functional.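 Also: agonist potency for raising coactivator recruitment to the receptor.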
Sequence of Peroxisome proliferator-activated receptor gamma/Nuclear receptor coactivator 3 (P37231 whole entry): as the sequence (P37231 whole entry) above
Sequence of Peroxisome proliferator-activated receptor gamma/Nuclear receptor coactivator 3 (Q9Y6Q9 whole entry, further chain): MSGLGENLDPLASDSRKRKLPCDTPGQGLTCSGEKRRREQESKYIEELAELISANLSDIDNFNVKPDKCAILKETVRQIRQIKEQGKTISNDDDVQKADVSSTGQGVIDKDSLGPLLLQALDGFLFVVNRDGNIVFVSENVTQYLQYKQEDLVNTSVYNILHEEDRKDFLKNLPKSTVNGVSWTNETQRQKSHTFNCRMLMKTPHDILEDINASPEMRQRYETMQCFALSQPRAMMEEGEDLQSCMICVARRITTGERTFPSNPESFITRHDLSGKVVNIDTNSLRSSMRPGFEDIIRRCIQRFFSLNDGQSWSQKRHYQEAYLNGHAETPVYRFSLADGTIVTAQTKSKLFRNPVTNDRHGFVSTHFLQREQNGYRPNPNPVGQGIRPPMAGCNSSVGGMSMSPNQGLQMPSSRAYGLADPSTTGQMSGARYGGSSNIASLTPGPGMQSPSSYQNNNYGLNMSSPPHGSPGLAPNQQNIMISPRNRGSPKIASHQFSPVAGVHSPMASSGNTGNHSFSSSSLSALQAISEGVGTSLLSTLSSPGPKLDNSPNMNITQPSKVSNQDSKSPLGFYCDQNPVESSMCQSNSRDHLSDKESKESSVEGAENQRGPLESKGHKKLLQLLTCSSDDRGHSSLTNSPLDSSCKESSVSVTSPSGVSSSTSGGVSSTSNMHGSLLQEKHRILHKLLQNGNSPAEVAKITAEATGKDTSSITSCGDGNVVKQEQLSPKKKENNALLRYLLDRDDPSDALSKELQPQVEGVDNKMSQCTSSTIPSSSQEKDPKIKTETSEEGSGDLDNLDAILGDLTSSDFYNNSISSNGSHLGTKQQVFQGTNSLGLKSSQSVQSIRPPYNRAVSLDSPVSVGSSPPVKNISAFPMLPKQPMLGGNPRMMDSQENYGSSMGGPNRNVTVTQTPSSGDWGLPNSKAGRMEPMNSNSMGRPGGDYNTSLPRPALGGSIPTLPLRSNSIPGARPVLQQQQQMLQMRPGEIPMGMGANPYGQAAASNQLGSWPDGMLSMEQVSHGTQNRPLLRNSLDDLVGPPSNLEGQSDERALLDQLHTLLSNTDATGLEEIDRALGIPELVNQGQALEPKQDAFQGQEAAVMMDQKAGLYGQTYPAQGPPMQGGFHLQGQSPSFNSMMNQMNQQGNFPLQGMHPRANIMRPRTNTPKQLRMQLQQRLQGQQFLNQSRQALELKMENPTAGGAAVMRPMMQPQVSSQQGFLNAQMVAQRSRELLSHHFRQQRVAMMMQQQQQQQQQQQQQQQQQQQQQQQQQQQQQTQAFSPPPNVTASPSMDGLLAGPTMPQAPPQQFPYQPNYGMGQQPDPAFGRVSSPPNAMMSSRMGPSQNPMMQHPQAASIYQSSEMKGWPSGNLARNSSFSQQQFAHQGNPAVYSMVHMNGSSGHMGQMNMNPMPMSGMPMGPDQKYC
Experiment [14] addresses Peroxisome proliferator-activated receptor gamma/Nuclear receptor coactivator 1 (Homo sapiens, UniProt P37231). Type of experiment: functional.
Experiment [15] has as its target Glyceraldehyde-3-phosphate dehydrogenase (Homo sapiens, UniProt P04406).
Experiment [16] concerns the target T7, Polyadenylate-binding protein 1 (Homo sapiens, UniProt P11940). The experiment in a line: PABP1 MLLE–PAM2 binding inhibitor potency, dose response, biochemical, fluorescence polarization, FITC-PAM2 peptide (AID 602259). Type of experiment: functional. The following applies: read-out: IC50_Mean.
The target of experiment [17] is T7, Polyadenylate-binding protein 1. The experiment in a line: PABP1 MLLE–PAM2 interaction inhibitors, dose response, miRNA deadenylation inhibitor project, biochemical, fluorescence polarization, Cy5-PAM2 peptide, secondary (AID 602260). Type of experiment: functional. The following applies: read-out: IC50_Mean.

Sequence of Cytochrome P450 3A4 (P08684 whole entry): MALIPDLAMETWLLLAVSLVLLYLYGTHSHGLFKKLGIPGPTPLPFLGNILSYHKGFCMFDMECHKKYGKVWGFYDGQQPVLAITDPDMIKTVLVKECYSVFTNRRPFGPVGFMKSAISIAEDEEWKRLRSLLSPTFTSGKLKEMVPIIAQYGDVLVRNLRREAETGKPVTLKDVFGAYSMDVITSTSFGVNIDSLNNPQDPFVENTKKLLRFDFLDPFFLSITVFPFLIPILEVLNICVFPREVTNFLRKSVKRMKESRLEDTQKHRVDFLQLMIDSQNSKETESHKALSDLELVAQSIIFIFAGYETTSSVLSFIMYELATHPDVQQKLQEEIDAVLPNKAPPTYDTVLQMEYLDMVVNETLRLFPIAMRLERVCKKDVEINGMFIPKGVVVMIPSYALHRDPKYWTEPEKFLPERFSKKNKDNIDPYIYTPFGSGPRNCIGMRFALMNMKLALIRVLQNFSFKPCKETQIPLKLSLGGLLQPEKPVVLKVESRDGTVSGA
T7 sequence (P11940 whole entry): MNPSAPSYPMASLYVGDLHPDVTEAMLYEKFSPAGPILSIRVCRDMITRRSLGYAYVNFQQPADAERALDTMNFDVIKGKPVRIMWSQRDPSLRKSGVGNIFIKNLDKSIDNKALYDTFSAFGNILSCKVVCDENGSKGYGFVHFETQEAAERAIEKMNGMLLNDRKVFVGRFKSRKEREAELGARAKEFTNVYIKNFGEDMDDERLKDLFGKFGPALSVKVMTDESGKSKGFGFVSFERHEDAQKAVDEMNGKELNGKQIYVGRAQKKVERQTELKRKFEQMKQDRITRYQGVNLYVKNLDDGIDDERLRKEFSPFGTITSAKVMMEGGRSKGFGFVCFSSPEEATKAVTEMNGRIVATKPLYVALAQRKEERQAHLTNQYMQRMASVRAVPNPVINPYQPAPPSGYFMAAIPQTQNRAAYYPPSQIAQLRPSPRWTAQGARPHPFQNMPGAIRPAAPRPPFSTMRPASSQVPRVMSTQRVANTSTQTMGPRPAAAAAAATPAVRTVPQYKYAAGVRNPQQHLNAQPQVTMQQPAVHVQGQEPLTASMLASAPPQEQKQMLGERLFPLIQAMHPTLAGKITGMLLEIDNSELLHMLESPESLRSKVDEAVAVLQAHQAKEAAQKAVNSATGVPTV

With `CN1C[C@@H]2C(c3ccc(Cl)nc3)C3(c4ccc(C#N)cc4)CC2(C3)[C@H]1c1ccccc1` (some centres not stated), at Cytochrome P450 3A4, the AC50 is 15.8 µM (inconclusive).

Regarding `CC1CCN(CCCNC(=O)c2ccc3c(=O)n(Cc4ccc(Cl)cc4)c(=S)[nH]c3c2)CC1`, the AC50 in [1] is 6.37 µM (active). Moreover, the IC50 in experiment [2] was > 20 µM (inactive). Moreover, in experiment [3], the EC50 is 17.9 µM (active).

Regarding `COc1ccc(N)c(OC)c1`, the AC50 at Cytochrome P450 3A4 was 25.1 µM (inconclusive).

On to `Cc1ccc(-n2nnnc2Sc2nc([N+](=O)[O-])nn2C)cc1`, for which the CC50 in experiment [4] is 16.5 µM (active).

Regarding `Nc1ccccc1C#CC(=O)c1ccccc1`, the CC50 in experiment [5] is 23.5 µM (active); in [6] it was 17.4 µM (active); in [7], 16.9 µM (active). The AC50 was 7.81 µM (active) in the experiment with INS1 and 5.42 µM (active) in experiment [8]. In addition, the IC50 in “cells” is 4.2 µM (active). Also, the EC50 in experiment [3] was 8.09 µM (active).

In the case of `Cc1cc(C)nc(Nc2ccc(N3CCCC3)cc2)n1`, the IC50 at Bcl-2-like protein 10 was 61.9 µM (inactive).

`O=C(O)CC1SC(N/N=C/c2ccc(-c3ccc(Cl)cc3[N+](=O)[O-])o2)=NC1=O` (configuration not stated): the AC50 in experiment [9] is > 380 µM (inactive). The figures for the IC50 (at Genome polyprotein; in [10]) were 34.8 µM (active) and > 50 µM (not active), respectively. On Protein RecA, the EC50 is 4.61 µM (active).

With `CC1CC1C(=O)Nc1nc(-c2cccs2)c(-c2cccs2)s1` (configuration not stated), in [4], the CC50 is > 40 µM (active).

Consider `Cc1ccccc1OCC(=O)N(Cc1cccs1)C1CCS(=O)(=O)C1` (configuration not stated), for which, in [11], the EC50 is listed as > 50 µM (not active).

As to `C=CCn1c(S)nnc1-c1c[nH]c2ccccc12`, in experiment [11], the EC50 is recorded as > 50 µM (not active).

For `CCOC(=O)c1c(C)cc(OC)cc1O` [ETHYL EVERNINATE], on Cytochrome P450 3A4, the AC50 was 31.6 µM (inconclusive).

Turning to `O=S(=O)(Nc1cccc(C(F)(F)F)c1)c1cnc[nH]1`, the EC50 in experiment [12], in experiment [13] and in [14] was > 79.4 µM (not active) throughout.

On to `COc1cc2c(cc1OC)C(Nc1ccc(S(N)(=O)=O)cc1)=NC(C)(C)C2`, for which the EC50 in experiment [12], in [13] and in experiment [14] was > 79.4 µM (not active) each time.

With `O=C(O)CSc1nc(-c2ccccc2)cs1`, the IC50 in [15] is > 100 µM (not active).

Turning to `COc1cc(-c2nc(S(=O)(=O)c3ccc(C)cc3)c(N3CCOCC3)o2)cc(OC)c1OC`, the IC50 in experiment [16] and in experiment [17] was > 66 µM (inactive) each time. The CC50 in experiment [4] was > 40 µM (active).
